Blank lines part the entries; values can stand above or below the molecule they belong to. Active and inactive are the calls of the source. No cut-off for these calls is given here.
Key:
HeLa [1] = experiment: SarcPROTAC activity at VHL/RAS in TMSN3/Selectfluor-treated human HeLa cells at 50 uM in presence of CuBr/TBTA incubated for 24 hrs by Western blot analysis; type: cell-based
A549 [2] = experiment: SarcPROTAC activity at VHL/RAS in TMSN3/Selectfluor-treated human A549 cells at 50 uM in presence of CuBr/TBTA incubated for 24 hrs by Western blot analysis; type: cell-based
[3] = target: T1, Protein cereblon/GTPase HRas/GTPase NRas/GTPase KRas (Homo sapiens) (UniProt P01112+P01111+P01116+Q96SW2); experiment: SacrPROTAC activity at E3 ubiquitin ligase/RAS in TMSN3/Selectfluor-treated human HeLa cells assessed as induction of RAS degradation incubated for 24 hrs by Western blot analysis; type: cell-based; conditions: dose <= 200.0 µM
[4] = target: T1, Protein cereblon/GTPase HRas/GTPase NRas/GTPase KRas (Homo sapiens); experiment: SacrPROTAC activity at E3 ubiquitin ligase/RAS in TMSN3/Selectfluor-treated human HeLa cells assessed as induction of RAS degradation at 200 uM measured after 24 hrs by Western blot analysis; type: cell-based
[5] = target: T1, Protein cereblon/GTPase HRas/GTPase NRas/GTPase KRas (Homo sapiens); experiment: SacrPROTAC activity at E3 ubiquitin ligase/RAS in TMSN3/Selectfluor-treated human HeLa cells assessed as induction of RAS degradation at 75 uM incubated for >48 hrs by Western blot analysis; type: cell-based
[6] = target: T1, Protein cereblon/GTPase HRas/GTPase NRas/GTPase KRas (Homo sapiens); experiment: SacrPROTAC activity at E3 ubiquitin ligase/RAS in TMSN3/Selectfluor-treated human HeLa cells assessed as induction of RAS degradation at 200 uM measured after 24 hrs in presence of PYR-41 by Western blot analysis; type: cell-based
[7] = target: T1, Protein cereblon/GTPase HRas/GTPase NRas/GTPase KRas (Homo sapiens); experiment: SacrPROTAC activity at E3 ubiquitin ligase/RAS in TMSN3/Selectfluor-treated human HeLa cells assessed as induction of RAS degradation at 200 uM measured after 24 hrs in presence of methyl propargyl pomalidomide by Western blot analysis; type: cell-based
HeLa [8] = experiment: Downregulation of HRAS in TMSN3/Selectfluor-treated human HeLa cells at 50 to 200 uM incubated for 24 hrs in presence of CuBr/TBTA by TMT mass spectrometric analysis; type: functional, cell-based; conditions: dose 50-200 µM
HeLa [9] = experiment: Upregulation of GSTP1 in TMSN3/Selectfluor-treated human HeLa cells at 50 to 200 uM incubated for 24 hrs in presence of CuBr/TBTA by TMT mass spectrometric analysis; type: functional, cell-based; conditions: dose 50-200 µM
A549 [10] = experiment: SacrPROTAC activity at E3 ubiquitin ligase/RAS in TMSN3/Selectfluor-treated human A549 cells assessed as induction of RAS degradation at 200 uM measured for 48 hrs by Western blot analysis; type: functional, cell-based
HT-29 [11] = experiment: SacrPROTAC activity at E3 ubiquitin ligase/RAS in TMSN3/Selectfluor-treated human HT-29 cells assessed as induction of RAS degradation at 100 to 200 uM measured after 24 hrs by Western blot analysis; type: functional, cell-based; conditions: dose 100-200 µM
MCF7 [12] = experiment: SacrPROTAC activity at E3 ubiquitin ligase/RAS in TMSN3/Selectfluor-treated human MCF7 cells assessed as induction of RAS degradation at 200 uM measured after 24 hrs by Western blot analysis; type: functional, cell-based
HT-29 [13] = experiment: SacrPROTAC activity at E3 ubiquitin ligase/RAS in TMSN3/Selectfluor-treated human HT-29 cells assessed as induction of RAS degradation at 100 to 200 uM measured for 12 to 24 hrs by Western blot analysis; type: functional, cell-based; conditions: dose 100-200 µM, time 12-24 hrs
MCF7 [14] = experiment: SacrPROTAC activity at E3 ubiquitin ligase/RAS in TMSN3/Selectfluor-treated human MCF7 cells assessed as induction of RAS degradation at 200 uM measured upto 48 hrs by Western blot analysis; type: functional, cell-based
HT-29 [15] = experiment: Inhibition of […] in TMSN3/Selectfluor-treated human HT-29 cells upto 200 uM in presence of CuBr/TBTA by CCK8 assay; type: functional, cell-based
HeLa [16] = experiment: Induction of apoptosis in TMSN3/Selectfluor-treated human HeLa cells at 200 uM in presence of CuBr/TBTA incubated for 24 hrs by annexin V-FITC/PI staining based flow cytometry; type: functional, cell-based
[17] = target: T1, Protein cereblon/GTPase HRas/GTPase NRas/GTPase KRas (Homo sapiens); experiment: SacrPROTAC activity at E3 ubiquitin ligase/RAS in TMSN3/Selectfluor-treated human HeLa cells assessed as induction of RAS degradation at 200 uM measured after 24 hrs in presence of propargyl pomalidomide by Western blot analysis; type: cell-based

T1 sequence (P01111 whole entry, looked up): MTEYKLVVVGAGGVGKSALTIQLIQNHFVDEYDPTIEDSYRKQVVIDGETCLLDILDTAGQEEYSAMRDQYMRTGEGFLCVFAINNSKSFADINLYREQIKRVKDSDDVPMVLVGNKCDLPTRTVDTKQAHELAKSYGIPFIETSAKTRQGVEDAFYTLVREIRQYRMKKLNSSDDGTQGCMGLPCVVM
T1 sequence (P01112 whole entry, looked up): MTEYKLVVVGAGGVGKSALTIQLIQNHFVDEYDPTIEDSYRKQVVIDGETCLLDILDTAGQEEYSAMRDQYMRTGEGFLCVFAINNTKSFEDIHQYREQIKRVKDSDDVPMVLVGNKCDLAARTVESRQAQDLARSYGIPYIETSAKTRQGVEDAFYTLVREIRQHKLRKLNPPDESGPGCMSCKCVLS
T1 sequence (P01116 whole entry, looked up): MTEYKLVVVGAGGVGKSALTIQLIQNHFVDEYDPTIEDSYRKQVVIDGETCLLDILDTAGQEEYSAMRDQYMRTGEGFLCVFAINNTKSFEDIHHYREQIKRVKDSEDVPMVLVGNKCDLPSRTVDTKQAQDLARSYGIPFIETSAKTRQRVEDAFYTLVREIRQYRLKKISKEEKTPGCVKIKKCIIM
T1 sequence (Q96SW2 whole entry, looked up): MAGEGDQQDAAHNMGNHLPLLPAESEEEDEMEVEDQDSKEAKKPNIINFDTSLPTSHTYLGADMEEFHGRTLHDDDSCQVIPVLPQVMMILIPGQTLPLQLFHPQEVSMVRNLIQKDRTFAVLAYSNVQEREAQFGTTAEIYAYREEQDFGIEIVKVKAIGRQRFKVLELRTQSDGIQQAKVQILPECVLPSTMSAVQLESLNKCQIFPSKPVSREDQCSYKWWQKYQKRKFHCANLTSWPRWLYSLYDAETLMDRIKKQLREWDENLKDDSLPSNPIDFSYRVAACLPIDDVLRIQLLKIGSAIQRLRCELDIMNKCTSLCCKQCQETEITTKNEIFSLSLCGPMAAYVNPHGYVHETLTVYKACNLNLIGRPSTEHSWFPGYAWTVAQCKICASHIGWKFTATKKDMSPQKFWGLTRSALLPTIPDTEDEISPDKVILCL

Compound: C#CCCOC(=O)N[C@H](C(=O)N1C[C@H](O)C[C@H]1C(=O)NCc1ccc(-c2scnc2C)cc1)C(C)(C)C
Activity (HeLa [1]): Active | Activity (A549 [2]): Active

Activity [3]: Dose-Dependent Effect | Activity [4]: Active | Activity [5]: Active | Activity [6]: inactive | Activity [7]: Active
Compound: C#CCNCC(=O)Nc1cccc2c1C(=O)N(C1CCC(=O)NC1=O)C2=O (configuration not stated)
Activity (HeLa [8]): Active | Activity (HeLa [9]): Active | Activity (A549 [10]): Active | Activity (HT-29 [11]): Active | Activity (MCF7 [12]): Active | Activity (HT-29 [13]): Active | Activity (MCF7 [14]): inactive | inhibition (HT-29 [15]): Active | Activity (HeLa [16]): Active

Activity [17]: inactive
Compound: C#CCNCC(=O)Nc1cccc2c1C(=O)N(C1CCC(=O)N(C)C1=O)C2=O (configuration not stated)

Source: ChEMBL document CHEMBL5338792, “Degradation of Rat Sarcoma Proteins Targeting the Post-Translational Prenyl Modifications via Cascade Azidation/Fluorination and Click Reaction” (J Med Chem, 2023)
